Laboratory results taken from patent publication EP4806912A1, “DUAL AGONIST COMPOUND” (Chengdu Aoda Biotechnology Co., Ltd, priority 2023, dated 2025).

How the values were obtained:
[1] = Preliminary pharmacokinetic evaluation in cynomolgus monkeys (plasma, LC-MS); format: in vivo; settings: for half-life: cynomolgus monkey, male cynomolgus monkeys, subcutaneously (SC), 0.2 mg/kg, plasma; for half-lives: cynomolgus monkeys, administered subcutaneously
Description: Among the above compounds, the principle of modification for long-acting was essentially the same.
The test animals were male cynomolgus monkeys. Two animals were used for each compound. The compounds were administered subcutaneously at a dose of 0.2 mg/kg. Blood samples were collected via intravenous sampling prior to administration (0 h) and at 1 h, 2 h, 3 h, 4 h, 8 h, 12 h, 18 h, 24 h, 48 h, 96 h, 144 h, and 168 h after administration. Plasma samples were obtained by centrifugation. The plasma concentrations of the compounds were respectively determined by liquid chromatography - mass spectrometry (LC-MS).

GLP-1R = molecular target: T1, GLP-1R (Homo sapiens, UniProt P43220); assay: GLP-1 activity test (cAMP, chemiluminescence, CHO-K1 cell line stably expressing GLP-1R); format: cell-based; settings: relative luminescence units, read-out: GLP-1 activity [EC50(pmol)]
T1 construct: expressed in transfected cells; host or cells: CHO-K1
T1 sequence (P43220 24-463, species assumed): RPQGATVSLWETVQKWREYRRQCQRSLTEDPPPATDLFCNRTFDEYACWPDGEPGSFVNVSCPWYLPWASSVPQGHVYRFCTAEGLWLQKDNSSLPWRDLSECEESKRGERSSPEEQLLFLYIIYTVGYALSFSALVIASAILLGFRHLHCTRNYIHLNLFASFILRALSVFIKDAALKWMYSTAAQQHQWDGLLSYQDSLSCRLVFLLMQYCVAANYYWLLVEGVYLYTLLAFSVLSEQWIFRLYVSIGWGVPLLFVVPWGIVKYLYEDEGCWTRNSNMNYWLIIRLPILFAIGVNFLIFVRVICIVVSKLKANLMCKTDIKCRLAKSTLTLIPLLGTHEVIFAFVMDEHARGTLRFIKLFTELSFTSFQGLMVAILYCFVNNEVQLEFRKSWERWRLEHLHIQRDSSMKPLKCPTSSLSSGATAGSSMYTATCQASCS
Description: (§1) Upon stimulation by a specific agonist, GLP-1R activates the intracellular adenylate cyclase signaling pathway, resulting in an increase in cAMP levels and ultimately leading to insulin production and secretion. A cell line stably transfected with GLP-1R was stimulated with test compounds, thereby rapidly increasing intracellular cAMP levels. The relative luminescence units (RLU) of cells stimulated at various concentrations were measured by a chemiluminescence method, and the EC50 value of the agonist was calculated accordingly. This activity test method is currently a commonly used method for evaluating GLP-1 receptor agonist activity both domestically and internationally.
A CHO-K1 cell line stably expressing GLP-1R was used. The stable cells were stimulated with agonists at different concentrations, and the relative luminescence units after stimulation at each concentration were measured to calculate the EC50 value of the agonist.

GCG-R = molecular target: T2, GCG-R (Homo sapiens, UniProt P47871); assay: GCG activity test (cAMP, chemiluminescence, CHO-K1 cell line stably expressing GCG-R); format: cell-based; settings: relative luminescence units, read-out: GCG activity [EC50(nmol)]
T2 construct: expressed in transfected cells; host or cells: CHO-K1
T2 sequence (P47871 26-477, species assumed): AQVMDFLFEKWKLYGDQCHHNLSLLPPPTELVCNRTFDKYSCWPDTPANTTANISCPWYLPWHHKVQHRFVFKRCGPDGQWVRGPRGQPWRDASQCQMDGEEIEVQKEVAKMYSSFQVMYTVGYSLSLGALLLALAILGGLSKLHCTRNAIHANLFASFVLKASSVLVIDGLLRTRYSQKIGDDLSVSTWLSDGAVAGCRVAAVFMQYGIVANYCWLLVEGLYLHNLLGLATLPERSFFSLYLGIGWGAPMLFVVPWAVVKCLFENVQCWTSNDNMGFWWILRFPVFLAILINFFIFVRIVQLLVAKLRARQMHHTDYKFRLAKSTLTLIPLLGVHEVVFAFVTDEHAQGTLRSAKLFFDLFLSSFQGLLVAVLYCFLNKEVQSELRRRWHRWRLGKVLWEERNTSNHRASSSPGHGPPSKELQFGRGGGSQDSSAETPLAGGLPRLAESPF
Description: as §1, with “agonist, GCG-R” for “agonist, GLP-1R”, “with GCG-R” for “with GLP-1R”, “activity assay” for “activity test”, “evaluating GCG” for “evaluating GLP-1”
A CHO-K1 cell line stably expressing GCG-R was used. The stable cells were stimulated with agonists at different concentrations, and the relative luminescence units after stimulation at each concentration were measured to calculate the EC50 value of the agonist.

Row | SMILES | half-life [1] [h] | half-lives [1] | EC50 (GLP-1R) [nM] | EC50 (GCG-R) [nM]
1 | CC(C)C[C@H](NC(=O)[C@H](CC(C)C)NC(=O)[C@H](Cc1c[nH]c2ccccc12)NC(=O)[C@H](CCC(=O)O)NC(=O)[C@@H](NC(=O)[C@H](Cc1ccccc1)NC(=O)[C@H](CCC(=O)O)NC(=O)[C@H](CCCCNC(=O)COCCOCCOCCOCCOCCNC(=O)CCC[C@H](NC(=O)CCCCCCCCCCCCCCCCCCC(=O)O)C(=O)O)NC(=O)[C@H](C)NC(=O)[C@H](CCCCN)NC(=O)[C@H](CCCCN)NC(=O)[C@H](CCC(=O)O)NC(=O)[C@H](CC(=O)O)NC(=O)[C@H](CC(C)C)NC(=O)[C@H](Cc1ccc(O)cc1)NC(=O)[C@H](CCCCN)NC(=O)[C@H](CO)NC(=O)[C@H](Cc1ccc(O)cc1)NC(=O)[C@H](CC(=O)O)NC(=O)[C@H](CO)NC(=O)[C@@H](NC(=O)C(C)(Cc1ccccc1F)NC(=O)[C@@H](NC(=O)CNC(=O)[C@H](CCC(N)=O)NC(=O)C(C)(C)NC(=O)[C@@H](N)Cc1c[nH]cn1)[C@@H](C)O)[C@@H](C)O)C(C)C)C(=O)N[C@@H](CCC(=O)O)C(=O)NCCCCC(=O)N1CCC[C@H]1C(=O)N[C@@H](CO)C(=O)N[C@@H](CO)C(=O)NCC(=O)N[C@@H](C)C(=O)N1CCC[C@H]1C(=O)N1CCC[C@H]1C(=O)N1CCC[C@H]1C(=O)N[C@@H](CO)C(N)=O (some centres unmarked) [Compound 10] | 136 | greater than 100 hours | 0.0755 | 1.2
2 | CC(C)C[C@H](NC(=O)[C@H](CC(C)C)NC(=O)[C@H](Cc1c[nH]c2ccccc12)NC(=O)[C@H](CCC(=O)O)NC(=O)[C@@H](NC(=O)[C@H](Cc1ccccc1)NC(=O)[C@H](CCC(=O)O)NC(=O)[C@H](CCCCNC(=O)COCCOCCOCCOCCOCCNC(=O)CCC[C@H](NC(=O)CCCCCCCCCCCCCCCCCCC(=O)O)C(=O)O)NC(=O)[C@H](C)NC(=O)[C@H](CCCCN)NC(=O)[C@H](CCCCN)NC(=O)[C@H](CCC(=O)O)NC(=O)[C@H](CC(=O)O)NC(=O)[C@H](CC(C)C)NC(=O)[C@H](Cc1ccc(O)cc1)NC(=O)[C@H](CCCCN)NC(=O)[C@H](CO)NC(=O)[C@H](Cc1ccc(O)cc1)NC(=O)[C@H](CC(=O)O)NC(=O)[C@H](CO)NC(=O)[C@@H](NC(=O)C(C)(Cc1ccccc1)NC(=O)[C@@H](NC(=O)CNC(=O)[C@H](CCC(N)=O)NC(=O)C(C)(C)NC(=O)[C@@H](N)Cc1c[nH]cn1)[C@@H](C)O)[C@@H](C)O)C(C)C)C(=O)N[C@@H](CCC(=O)O)C(=O)NCCCCC(=O)N1CCC[C@H]1C(=O)N[C@@H](CO)C(=O)N[C@@H](CO)C(=O)NCC(=O)N[C@@H](C)C(=O)N1CCC[C@H]1C(=O)N1CCC[C@H]1C(=O)N1CCC[C@H]1C(=O)N[C@@H](CO)C(N)=O (some centres unmarked) [Compound 6] | 125 | greater than 100 hours | 0.0809 | 2.1
